Measurements reported in patent US7781479B2, “Heteroaryl derivatives” (Dainippon Sumitomo Pharma Co., Ltd., priority 2005, dated 2010).

Target: T1, human PPARα ligand binding domain fused to GAL4 DNA binding domain (Homo sapiens, UniProt Q07869)
T1 construct: human PPARα (including amino acid residues 167-468); expressed in transfected cells; host or cells: COS-1 cells
T1 sequence (Q07869 167-468): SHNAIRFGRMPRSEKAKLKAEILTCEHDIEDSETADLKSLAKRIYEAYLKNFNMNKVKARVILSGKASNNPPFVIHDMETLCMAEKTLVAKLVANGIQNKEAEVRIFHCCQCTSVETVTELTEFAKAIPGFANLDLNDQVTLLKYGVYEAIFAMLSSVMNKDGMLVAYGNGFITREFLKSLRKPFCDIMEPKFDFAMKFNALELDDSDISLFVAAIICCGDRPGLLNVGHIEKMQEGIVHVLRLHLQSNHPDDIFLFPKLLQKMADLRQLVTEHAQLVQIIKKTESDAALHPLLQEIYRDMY
Experiment: GAL4-PPARα luciferase reporter assay in COS-1 cells
Format: cell-based
Conditions: relative luciferase activity, vehicle (DMSO) control regarded as 1, 24 hours
Description: (§1) Evaluation of PPAR α or γ Agonistic Activity
(§2) Construction of Reporter Plasmid
(§3) By inserting a gene fragment encoding the ligand binding domain of human PPARα (including amino acid residues 167-468) or a gene fragment encoding the ligand binding domain of human PPARγ (including amino acids residue 204-505) into a multicloning site of expressing vector pM containing DNA binding domain of yeast GAL4 protein (Clonetech), a vector plasmid for expressing a fused protein of GAL4 protein DNA binding domain and human PPARα or γ ligand binding domain was obtained.
(§4) As a reporter plasmid, pGL3-Basic Vector containing firefly luciferase gene (Promega Corporation) was used wherein Gal 4-responsive sequence UAS and rabbit β-globin promoter were inserted.
(§5) For the correction of transformation efficiency, a plasmid pβgal control (Clonetech) containing lacZ gene, was used.
COS-1 cells were cultured in the phenol red free Dulbecco's Modified Eagles Medium (DMEM) (Gibco) supplemented with 5% activated charcoal/dextran stripped fetal bovine serum at 37° C. with 5% carbon dioxide. […] The luciferase activity therein was measured by a luminometer using the reagent for measuring luciferase which was also accompanied to said System.
The PPARα- or γ-agonistic activity was expressed as a relative activity where the luciferase activity in the well to which the vehicle (DMSO) was added as control was regarded as 1. […]

SMILES	PPARα-agonistic activity (10 μM)
Cc1ccc(C(=O)c2c(C)n(-c3ccc(COC4(C(=O)O)CCC4)cc3)c3ccccc23)cc1 [Example 86, 1-({4-[2-Methyl-3-(4-methylbenzoyl)-1H-indol-1-yl]benzyl}oxy)cyclobutane carboxylic acid]	1.3

Target: T2, human PPARγ ligand binding domain fused to GAL4 DNA binding domain (Homo sapiens, UniProt P37231)
T2 construct: human PPARγ (including amino acids residue 204-505); expressed in transfected cells; host or cells: COS-1 cells
T2 sequence (P37231 204-505): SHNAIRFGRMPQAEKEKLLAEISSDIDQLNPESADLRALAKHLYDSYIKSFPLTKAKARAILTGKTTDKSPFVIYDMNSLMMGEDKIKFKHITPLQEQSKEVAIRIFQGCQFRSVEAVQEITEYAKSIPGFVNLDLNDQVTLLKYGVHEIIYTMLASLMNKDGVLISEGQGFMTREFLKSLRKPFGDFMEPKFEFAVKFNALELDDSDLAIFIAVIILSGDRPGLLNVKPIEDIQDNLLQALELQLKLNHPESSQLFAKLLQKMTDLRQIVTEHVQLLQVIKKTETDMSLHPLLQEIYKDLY
Experiment: GAL4-PPARγ luciferase reporter assay in COS-1 cells
Format: cell-based
Conditions: 10 μM, relative luciferase activity, vehicle (DMSO) control regarded as 1, 24 hours
Description: as §1, §2, §3, §4, §5
COS-1 cells were cultured in the phenol red free Dulbecco's Modified Eagles Medium (DMEM) (Gibco) supplemented with 5% activated charcoal/dextran stripped fetal bovine serum at 37° C. with 5% carbon dioxide. The COS-1 cells were plated at a concentration of 5×10^4 cells/well into a 24-well plate, and were incubated overnight. The medium was replaced with a fresh medium supplemented […] 5% activated charcoal/dextran treated fetal bovine serum. Further, the cells were transfected using Lipofectamine plus reagent (Gibco) with plasmids GAL4-PPARα- or γ-expressing plasmid (5 ng), the reporter plasmid (50 ng), and pβgal control (350 ng) per well. After incubation for 4 hours, the medium was changed with a fresh medium supplemented with 5% activated charcoal/dextran treated fetal bovine serum. Then, the compound of the present invention was added thereto in such an amount that the final concentration thereof is 0.1 μM, 0.3 μM, 1 μM, 3 μM or 10 μM. After the cultivation for 24 hours, the cells were lysed with a solution for cell lysis accompanied to the Luciferase Assay System (Promega Corporation). The luciferase activity therein was measured by a luminometer using the reagent for measuring luciferase which was also accompanied to said System.
The PPARα- or γ-agonistic activity was expressed as a relative activity where the luciferase activity in the well to which the vehicle (DMSO) was added as control was regarded as 1. The PPARα-agonistic activity and the PPARγ-agonistic activity at each 10 μM, and the maximum PPARγ-agonistic activity (%) of the compound of the present invention per the maximum PPARγ-agonistic activity (100%) of pioglitazone are shown in the following Table 1.

SMILES	PPARγ-agonistic activity (10 μM)
Cc1ccc(C(=O)c2c(C)n(-c3ccc(COC4(C(=O)O)CCC4)cc3)c3ccccc23)cc1 [Example 86, 1-({4-[2-Methyl-3-(4-methylbenzoyl)-1H-indol-1-yl]benzyl}oxy)cyclobutane carboxylic acid]	2.8

Same assay, conditions: maximum PPARγ-agonistic activity per the maximum PPARγ-agonistic activity (100%) of pioglitazone

SMILES	Emax [%]
Cc1ccc(C(=O)c2c(C)n(C/C=C/c3ccc(COC(C)(C)C(=O)O)cc3)c3ncccc23)cc1 [Compound 20]	68
Cc1ccc(C(=O)c2c(C)c3ccc(C(F)(F)F)cc3n2Cc2ccc(/C=C/COC(C)(C)C(=O)O)cc2)cc1 [Compound 83]	13
COc1ccc2c(C(=O)c3ccc(C)cc3)c(C)n(Cc3cccc(CO[C@H](C)C(=O)O)c3)c2c1 [Compound 54]	39
COc1ccc2c(C(=O)c3ccc(C)cc3)c(C)n(Cc3ccc(/C=C/COC(C)(C)C(=O)O)cc3)c2c1 [Compound 81]	42
COc1ccc2c(C(=O)c3ccc(C)cc3)c(C)n(Cc3ccc(CO[C@H](C)C(=O)O)cc3)c2c1 [Compound 46]	26
Cc1ccc(C(=O)c2c(C)n(Cc3ccc(/C=C/COC(C)(C)C(=O)O)cc3)c3ccccc23)cc1 [Compound 79]	35
Cc1ccc(C(=O)c2cccn2Cc2ccc(/C=C/CO[C@H](C)C(=O)O)cc2)cc1 [Compound 68]	71
Cc1ccc(C(=O)c2nn(C/C=C/c3ccc(COC(C)(C)C(=O)O)cc3)c3ccccc23)cc1 [Compound 35]	57
Cc1ccc(C(=O)c2c(C)n(Cc3cccc(CO[C@H](C)C(=O)O)c3)c3ncccc23)cc1 [Compound 59]	41
Cc1ccc(C(=O)c2cccn2C/C=C\c2ccc(COC(C)(C)C(=O)O)cc2)cc1 [Compound 1]	51
Cc1ccc(C(=O)c2ccn(C/C=C/c3ccc(CO[C@H](C)C(=O)O)cc3)n2)cc1 [Compound 21]	71
Cc1ccc(C(=O)c2c(C)n(-c3ccc(COC4(C(=O)O)CCC4)cc3)c3ccccc23)cc1 [Example 86, 1-({4-[2-Methyl-3-(4-methylbenzoyl)-1H-indol-1-yl]benzyl}oxy)cyclobutane carboxylic acid]	20

Test system: male db/db mice
Experiment: Hypoglycemic activity in db/db mice (blood glucose level)
Format: in vivo
Conditions: 30 mg/kg orally once a day for 2 weeks, blood glucose level on the last day
Protocol: The test compounds as disclosed in Examples were dissolved or suspended in a 0.5% carbomethyl cellulose solution, and orally administered to male db/db mice (7 to 8 weeks old) at a final dose of 30 mg/kg once a day for 2 weeks. On the last day, the blood was taken at the tail vein, and immediately thereafter, perchloric acid was added for removing proteins, and the blood glucose level was measured by Glucolse CII Test Wako (Wako Pure Industries, Ltd.).
The hypoglycemic activity was calculated by the following equation.

SMILES	Hypoglycemic Activity (%)
Cc1ccc(C(=O)c2c(C)n(C/C=C/c3ccc(COC(C)(C)C(=O)O)cc3)c3ncccc23)cc1 [Example 20, 2-Methyl-2-[(4-{(1E)-3-[2-Methyl-3-(4-methylbenzoyl)-1H-pyrrolo[2,3-b]pyridin-1-yl]prop-1-en-1-yl}benzyl)oxy]propionic acid]	50.4
COc1ccc2c(C(=O)c3ccc(C)cc3)c(C)n(Cc3cccc(CO[C@H](C)C(=O)O)c3)c2c1 [Example 54, (2R)-2-[(3-{[6-Methoxy-2-methyl-3-(4-methylbenzoyl)-1H-indol-1-yl]methyl-}benzyl)oxy]propionic acid]	47.7
Cc1ccc(C(=O)c2nn(/C=C/c3ccc(CO[C@H](C)C(=O)O)cc3)c3ccccc23)cc1 [Example 34, (2R)-2-[(4-{(E)-2-[3-(4-Methylbenzoyl)-1H-indazol-1-yl]vinyl}benzyl)oxy]propanoic acid]	47.4
Cc1ccc(C(=O)c2nn(C/C=C/c3ccc(COC(C)(C)C(=O)O)cc3)c3ccccc23)cc1 [Example 35, 2-Methyl-2-[(4-{(1E)-3-[3-(4-methylbenzoyl)-1H-indazol-1-yl]prop-1-en-1-yl}benzyl)oxy]propanoic acid]	27.3
